According to patent publication US7011839B2, “Otic microbial combination for treatment of animals with ruptured tympanic membrane” (Baya Corporation, priority 2000, dated 2006):

Legend:
Assay in all cases: MIC of each active ingredient (NCCLS agar plates)
Format in all cases: cell-based
[1] = test system: Malassezia; conditions: at the concentrations tested
Description: (§1) An in vitro microbiology study of the combination of the Enrofloxacin (quinolone) and sulfadiazine was conducted on multiple canine otic pathogens. The study was conducted under the National Committee for Clinical Laboratory Standards (NCCLS) guidelines employing ATCC control organisms for each agar plate tested. Initially, minimum inhibitory concentrations (MICs) were established for each active ingredient.

[2] = test system: Candida; conditions: at the concentrations tested
Description: as §1

[3] = test system: common dermal (otic) pathogens
Description: as §1

## CCN1CCN(c2cc3c(cc2F)c(=O)c(C(=O)O)cn3C2CC2)CC1 [Enrofloxacin]
[1]
  Effectiveness on Malassezia: not effective
[2]
  Effectiveness on Candida: not effective
[3]
  Activity on common dermal (otic) pathogens, based on MICs: active
